Measured values: ChEMBL document CHEMBL1156740, “A bivalent ligand (KMN-21) antagonist for mu/kappa heterodimeric opioid receptors” (Bioorg Med Chem Lett, 2009)
The source made the active and inactive calls.

What was measured:
Format in all cases: functional, cell-based
[1] = target: Mu-type opioid receptor (Homo sapiens) (UniProt P35372); experiment: Antagonistic activity at mu opioid receptor expressed in HEK293 cells co-transfected with chimeric G-protein delta 6-Gqi4-myr assessed as inhibition of DAMGO-induced calcium release at 1 uM
[2] = target: Kappa-type opioid receptor (Homo sapiens) (UniProt P41145); experiment: Antagonistic activity at kappa opioid receptor expressed in HEK293 cells co-transfected with chimeric G-protein delta 6-Gqi4-myr assessed as inhibition of U69593-induced calcium release at 1 uM
[3] = target: T1, Opioid receptors; mu & kappa (Homo sapiens) (UniProt P41145+P35372); experiment: Antagonistic activity at mu/kappa opioid receptor expressed in HEK293 cells co-transfected with chimeric G-protein delta 6-Gqi4-myr assessed as inhibition of U69593-induced calcium release at 1 uM
[4] = target: T1, Opioid receptors; mu & kappa (Homo sapiens); experiment: Antagonistic activity at mu/kappa opioid receptor expressed in HEK293 cells co-transfected with chimeric G-protein delta 6-Gqi4-myr assessed as inhibition of DAMGO-induced calcium release at 1 uM

Measured: Activity

Chain of Mu-type opioid receptor (Homo sapiens) (P35372 whole entry): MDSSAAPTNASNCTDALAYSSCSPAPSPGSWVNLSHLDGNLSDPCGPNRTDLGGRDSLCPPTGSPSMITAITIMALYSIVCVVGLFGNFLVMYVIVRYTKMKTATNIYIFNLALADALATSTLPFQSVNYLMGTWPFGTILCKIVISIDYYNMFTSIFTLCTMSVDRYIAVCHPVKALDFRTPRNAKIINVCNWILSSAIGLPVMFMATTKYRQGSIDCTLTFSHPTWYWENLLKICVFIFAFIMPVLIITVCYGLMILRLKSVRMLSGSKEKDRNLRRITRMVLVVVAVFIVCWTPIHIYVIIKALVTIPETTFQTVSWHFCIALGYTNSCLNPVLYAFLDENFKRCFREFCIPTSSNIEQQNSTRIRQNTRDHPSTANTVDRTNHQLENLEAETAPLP
T1 sequence (P35372 whole entry, looked up): as the sequence (P35372 whole entry) above
T1 sequence (P41145 whole entry, looked up): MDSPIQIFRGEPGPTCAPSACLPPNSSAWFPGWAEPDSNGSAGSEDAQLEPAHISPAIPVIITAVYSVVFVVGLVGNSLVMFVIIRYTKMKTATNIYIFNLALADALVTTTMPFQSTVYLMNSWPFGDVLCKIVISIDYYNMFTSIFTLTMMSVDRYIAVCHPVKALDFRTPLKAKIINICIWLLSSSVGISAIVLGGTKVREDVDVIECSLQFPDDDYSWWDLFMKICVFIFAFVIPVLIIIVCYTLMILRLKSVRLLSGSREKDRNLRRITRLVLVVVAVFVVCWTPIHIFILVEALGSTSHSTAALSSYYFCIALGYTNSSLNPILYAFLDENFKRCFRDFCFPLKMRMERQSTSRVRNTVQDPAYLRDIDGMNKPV
Chain of Kappa-type opioid receptor (Homo sapiens) (P41145 whole entry): as the sequence (P41145 whole entry, looked up) above

N=C(NCCCCCNC(=O)CNC(=O)CNC(=O)CCC(=O)NCC(=O)NCC(=O)N[C@H]1C[C@@H]2Oc3c(O)ccc4c3[C@@]23CCN(CC2CC2)[C@H](C4)[C@]3(O)C1)Nc1ccc2[nH]c3c(c2c1)C[C@@]1(O)[C@H]2Cc4ccc(O)c5c4[C@@]1(CCN2CC1CC1)[C@H]3O5
active: [1] | [2] | [3] | [4]

N=C(NCCNC(=O)CNC(=O)CNC(=O)CCC(=O)NCC(=O)NCC(=O)N[C@H]1C[C@@H]2Oc3c(O)ccc4c3[C@@]23CCN(CC2CC2)[C@H](C4)[C@]3(O)C1)Nc1ccc2[nH]c3c(c2c1)C[C@@]1(O)[C@H]2Cc4ccc(O)c5c4[C@@]1(CCN2CC1CC1)[C@H]3O5
active: [1] | [2] | [3] | [4]

N=C(NCCCNC(=O)CNC(=O)CNC(=O)CCC(=O)NCC(=O)NCC(=O)N[C@H]1C[C@@H]2Oc3c(O)ccc4c3[C@@]23CCN(CC2CC2)[C@H](C4)[C@]3(O)C1)Nc1ccc2[nH]c3c(c2c1)C[C@@]1(O)[C@H]2Cc4ccc(O)c5c4[C@@]1(CCN2CC1CC1)[C@H]3O5
active: [1] | [2] | [3] | [4]

N=C(NCCCCNC(=O)CNC(=O)CNC(=O)CCC(=O)NCC(=O)NCC(=O)N[C@H]1C[C@@H]2Oc3c(O)ccc4c3[C@@]23CCN(CC2CC2)[C@H](C4)[C@]3(O)C1)Nc1ccc2[nH]c3c(c2c1)C[C@@]1(O)[C@H]2Cc4ccc(O)c5c4[C@@]1(CCN2CC1CC1)[C@H]3O5
active: [1] | [2] | [3] | [4]
